Reference: patent US10919935B2, “Antimicrobial peptide derived from myxinidin peptide and uses thereof” (INDUSTRY-ACADEMIC COOPERATION FOUNDATION, CHOSUN UNIVERSITY, priority 2015, dated 2021)
Residues, ends and D or L forms follow the SMILES beside them.

Experiments:
S. aureus 3709 = test: MIC at salt concentration (Example 3); assay type: cell-based, Staphylococcus aureus
Experimental: (§1) To compare the antimicrobial activity of the peptide produced by the method of Example 1, the inventors of the present invention measured the minimum growth inhibitory concentration (MIC), which is minimum concentration of the peptide showing no dissociation of bacterial cells, at salt concentration.
(§2) Specifically, the bacterial strain described in the above Table 2 was cultured in each medium to a mid-log phase. Then, after dilution to bacterial cell concentration of 2×10^5 cells/100 μl, the cells were inoculated to a microtiter plate (NUNC, USA). Thereafter, myxinidin 1, myxinidin 2, or myxinidin 3 peptides which have been synthesized in Example 1 above was diluted, 1/2 times for each, with BSA+150 mM sodium chloride (NaCl) solution, physiological saline (PBS) solution, or 10 mM sodium phosphate (SP) solution in a 96-well plate. After adding the cells to a plate, the cells were cultured for 12 hours at 37° C. By using a microtiter plate reader (Merck Elisa reader, Germany), the absorbance was measured at a wavelength of 600 nm to determine the MIC value of each bacterial strain. As a control group, myxinidin as a mother peptide was subjected to the same processes as above and the MIC value of each bacterial strain was obtained.

S. aureus 3114 = test: MIC at salt concentration (Example 3); assay type: cell-based, Staphylococcus aureus
Experimental: as §1, §2

S. aureus [1] = test: MIC at salt concentration (Example 3); assay type: cell-based, Staphylococcus aureus
Experimental: as §1, §2

Escherichia coli 1229 = test: MIC at salt concentration (Example 3); assay type: cell-based
Experimental: as §1, §2

Escherichia coli 1238 = test: MIC at salt concentration (Example 3); assay type: cell-based
Experimental: as §1, §2

Escherichia coli = test: MIC at salt concentration (Example 3); assay type: cell-based
Experimental: as §1, §2

S. typhimurium 8009 = test: MIC at salt concentration (Example 3); assay type: cell-based, Salmonella typhimurium
Experimental: as §1, §2

S. typhimurium = test: MIC at salt concentration (Example 3); assay type: cell-based, Salmonella typhimurium
Experimental: as §1, §2

S. typhimurium 8013 = test: MIC at salt concentration (Example 3); assay type: cell-based, Salmonella typhimurium
Experimental: as §1, §2

L. monocytogenes [2] = test: Anti-biofilm activity (crystal violet); assay type: cell-based, Listeria monocytogenes
Experimental: (§3) To compare the antimicrobial activity of the peptide produced by the method of Example 1, the inventors of the present invention measured the biofilm inhibitory concentration value of the peptide showing no dissociation of bacterial cells.
(§4) Specifically, the Gram-negative bacteria and Gram-positive bacteria among the bacterial strains described in the above Table 2 were cultured in each medium to a mid-log phase. Then, after dilution to bacterial cell concentration of 5×10^5 cells/100 μl, the cells were inoculated to a microtiter plate (NUNC, USA). Thereafter, myxinidin 1, myxinidin 2, or myxinidin 3 peptides which have been synthesized in Example 1 above was diluted, 1/10 times for each, with physiological saline (PBS) solution in a 96-well plate. After adding the cells to a plate, the cells were cultured for 12 hours at 37° C. After removing the supernatant, the cells were fixed with 100% methanol and reacted for 2 hours with Crystal violet staining solution followed by rinsing for 3 times. Then, after dissolving in 95% ethanol, the absorbance was measured at a wavelength of 595 nm by using a microtiter plate reader (Merck Elisa reader, Germany) to determine the biofilm inhibitory concentration value of each bacterial strain. As a control group, myxinidin as a mother peptide was subjected to the same processes as above and the biofilm inhibitory concentration value of each bacterial strain was obtained.

S. aureus [3] = test: Anti-biofilm activity (crystal violet); assay type: cell-based, Staphylococcus aureus
Experimental: as §3, §4

P. aeruginosa [4] = test: Anti-biofilm activity (crystal violet); assay type: cell-based, Pseudomonas aeruginosa
Experimental: as §3, §4

L. monocytogenes [5] = test: MIC at salt concentration (Example 3); assay type: cell-based, Listeria monocytogenes
Experimental: as §1, §2

P. aeruginosa 3592 = test: MIC at salt concentration (Example 3); assay type: cell-based, Pseudomonas aeruginosa
Experimental: as §1, §2

P. aeruginosa 5018 = test: MIC at salt concentration (Example 3); assay type: cell-based, Pseudomonas aeruginosa
Experimental: as §1, §2

P. aeruginosa [6] = test: MIC at salt concentration (Example 3); assay type: cell-based, Pseudomonas aeruginosa
Experimental: as §1, §2

[7] = NaCl (BSA+150 mM sodium chloride)

CC[C@H](C)[C@H](NC(=O)CN)C(=O)N[C@@H](Cc1c[nH]cn1)C(=O)N[C@@H](Cc1c[nH]cn1)C(=O)N[C@H](C(=O)N[C@@H](CC(C)C)C(=O)N[C@@H](CCCCN)C(=O)N[C@@H](Cc1ccc(O)cc1)C(=O)NCC(=O)N[C@@H](CCCCN)C(=O)N1CCC[C@H]1C(=O)N[C@@H](CO)C(N)=O)[C@@H](C)CC [Myxinidin 1, GIHHILKYGKPS-NH2] (H-GIHHILKYGKPS-NH2; N-terminus assumed)
93%: Biofilm forming ability (L. monocytogenes [2]; peptide 32 μM) | Biofilm forming ability (P. aeruginosa [4]; peptide 2 μM)
88%: Biofilm forming ability (S. aureus [3]; peptide 0.5 μM) | Biofilm forming ability (P. aeruginosa [4]; peptide 32 μM)
79%: Biofilm forming ability (S. aureus [3]; peptide 16 μM)
94%: Biofilm forming ability (P. aeruginosa [4]; peptide 1 μM)
92%: Biofilm forming ability (P. aeruginosa [4]; peptide 4 μM) | Biofilm forming ability (P. aeruginosa [4]; peptide 8 μM)
99%: Biofilm forming ability (L. monocytogenes [2]; peptide 4 μM)
89%: Biofilm forming ability (P. aeruginosa [4]; peptide 16 μM)
100%: Biofilm forming ability (L. monocytogenes [2]; peptide 0.25 μM) | Biofilm forming ability (L. monocytogenes [2]; peptide 0.5 μM) | Biofilm forming ability (L. monocytogenes [2]; peptide 1 μM) | Biofilm forming ability (L. monocytogenes [2]; peptide 2 μM) | Biofilm forming ability (P. aeruginosa [4]; peptide 0.25 μM) | Biofilm forming ability (P. aeruginosa [4]; peptide 0.5 μM)
87%: Biofilm forming ability (S. aureus [3]; peptide 1 μM)
98%: Biofilm forming ability (L. monocytogenes [2]; peptide 8 μM) | Biofilm forming ability (S. aureus [3]; peptide 0.25 μM)
83%: Biofilm forming ability (S. aureus [3]; peptide 4 μM) | Biofilm forming ability (S. aureus [3]; peptide 8 μM)
75%: Biofilm forming ability (S. aureus [3]; peptide 32 μM)
97%: Biofilm forming ability (L. monocytogenes [2]; peptide 16 μM)
>32: Antimicrobial activity (MIC) according to salt concentration (S. aureus 3709; [7]) | Antimicrobial activity (MIC) according to salt concentration (S. aureus 3709; PBS) | Antimicrobial activity (MIC) according to salt concentration (S. aureus 3709; SP (10 mM sodium phosphate)) | Antimicrobial activity (MIC) according to salt concentration (S. aureus 3114; [7]) | Antimicrobial activity (MIC) according to salt concentration (S. aureus 3114; PBS) | Antimicrobial activity (MIC) according to salt concentration (S. aureus 3114; SP (10 mM sodium phosphate)) | Antimicrobial activity (MIC) according to salt concentration (S. aureus [1]; [7]) | Antimicrobial activity (MIC) according to salt concentration (S. aureus [1]; PBS) | Antimicrobial activity (MIC) according to salt concentration (S. aureus [1]; SP (10 mM sodium phosphate)) | Antimicrobial activity (MIC) according to salt concentration (Escherichia coli 1229; [7]) | Antimicrobial activity (MIC) according to salt concentration (Escherichia coli 1229; PBS) | Antimicrobial activity (MIC) according to salt concentration (Escherichia coli 1229; SP (10 mM sodium phosphate)) | Antimicrobial activity (MIC) according to salt concentration (Escherichia coli 1238; [7]) | Antimicrobial activity (MIC) according to salt concentration (Escherichia coli 1238; PBS) | Antimicrobial activity (MIC) according to salt concentration (Escherichia coli 1238; SP (10 mM sodium phosphate)) | Antimicrobial activity (MIC) according to salt concentration (Escherichia coli; [7]) | Antimicrobial activity (MIC) according to salt concentration (Escherichia coli; PBS) | Antimicrobial activity (MIC) according to salt concentration (Escherichia coli; SP (10 mM sodium phosphate)) | Antimicrobial activity (MIC) according to salt concentration (S. typhimurium 8009; [7]) | Antimicrobial activity (MIC) according to salt concentration (S. typhimurium 8009; PBS) | Antimicrobial activity (MIC) according to salt concentration (S. typhimurium 8009; SP (10 mM sodium phosphate)) | Antimicrobial activity (MIC) according to salt concentration (S. typhimurium; [7]) | Antimicrobial activity (MIC) according to salt concentration (S. typhimurium; PBS) | Antimicrobial activity (MIC) according to salt concentration (S. typhimurium; SP (10 mM sodium phosphate)) | Antimicrobial activity (MIC) according to salt concentration (S. typhimurium 8013; [7]) | Antimicrobial activity (MIC) according to salt concentration (S. typhimurium 8013; PBS) | Antimicrobial activity (MIC) according to salt concentration (S. typhimurium 8013; SP (10 mM sodium phosphate)) | Antimicrobial activity (MIC) according to salt concentration (L. monocytogenes [5]; [7]) | Antimicrobial activity (MIC) according to salt concentration (L. monocytogenes [5]; PBS) | Antimicrobial activity (MIC) according to salt concentration (L. monocytogenes [5]; SP (10 mM sodium phosphate)) | Antimicrobial activity (MIC) according to salt concentration (P. aeruginosa 3592; [7]) | Antimicrobial activity (MIC) according to salt concentration (P. aeruginosa 3592; PBS) | Antimicrobial activity (MIC) according to salt concentration (P. aeruginosa 3592; SP (10 mM sodium phosphate)) | Antimicrobial activity (MIC) according to salt concentration (P. aeruginosa 5018; [7]) | Antimicrobial activity (MIC) according to salt concentration (P. aeruginosa 5018; PBS) | Antimicrobial activity (MIC) according to salt concentration (P. aeruginosa 5018; SP (10 mM sodium phosphate)) | Antimicrobial activity (MIC) according to salt concentration (P. aeruginosa [6]; [7]) | Antimicrobial activity (MIC) according to salt concentration (P. aeruginosa [6]; PBS) | Antimicrobial activity (MIC) according to salt concentration (P. aeruginosa [6]; SP (10 mM sodium phosphate))
86%: Biofilm forming ability (S. aureus [3]; peptide 2 μM)
